Data as given in patent US20170211147A1, “METHOD OF PREDICTING REACTION TO SORAFENIB TREATMENT USING GENE POLYMORPHISM” (National Cancer Center, priority 2014, published 2017).

Experiments:
[1] = test system: liver cancer patients; experiment: Progression-free survival with sorafenib treatment by SLC15A2 genotype (Kaplan-Meier, Cox proportional hazard model); format: in vivo, human
Excerpt: Five coding variants were identified in the SLC15A2 gene by NGS analysis, and three non-synonymous SNVs (L350F, P409S and R509K), which may cause a functional alternation in gene product, were selected so as to analyze genotypes for 233 liver cancer patients that had received sorafenib treatment over 6 weeks.
Also, to confirm SNPs to be analyzed, 249 patients treated with sorafenib were genotyped using the MassARRAY system (Sequenom, San Diego, Calif., USA), thereby obtaining three SNP genotypes (C/C, C/T and T/T).
Specifically, the association between generic polymorphisms and risk for progression was assessed by a Cox proportional hazard model with adjustment by stage of hepatocellular carcinoma (HCC). Also, analyses of data obtained were performed using STATA version 10.1 (Stata Corp, College Station, Tex., USA).

[2] = test system: SNU182 cell line; experiment: MTT assay, cell viability after sorafenib treatment; format: cell-based, human; details: SNU182, T/T genotype
Procedure: (§1) First, human hepatocellular carcinoma (HCC)-derived cell lines such as Hep3B, SNU182 and PLC/PRFS cell lines were purchased from Korean Cell Line Bank (KCLB, Seoul, Republic of Korea), and genomic DNA was extracted from the cell lines derived from human HCC using a MagAttract DNA mini M48 kit (Qiagen) according to a user manual of the kit.
(§2) Afterward, to confirm the sorafenib response in each cell line according to the SLC15A2 gene nucleotide polymorphism, each cell line was cultured in RPMI-1640 (Invitrogen, Carlsbad, Calif., USA) with 10%(v/v) fetal bovine serum (FBS) and 100 U/ml penicillin-streptomycin at 37° C. in 5% CO2. Next, for the MTT assay, cells obtained by the above-described culture were plated on 96-well plates at a density of 1×10^4 cells/well and treated with sorafenib for 48 hours in the RPMI-1640 used above.
(§3) Then, the number of viable cells was measured by performing the MTT assay (Promega Fitchburg, Wis., USA) according to a user manual of the MTT assay.

[3] = test system: Hep3B cell line; experiment: as above; format: cell-based, human; details: C/C genotype, sorafenib for 48 hours
Procedure: as §1, §2, §3

[4] = test system: PLC/PRFS cell line; experiment: as above; format: cell-based, human; details: C/T genotype
Procedure: as §1, §2, §3

CNC(=O)c1cc(Oc2ccc(NC(=O)Nc3ccc(Cl)c(C(F)(F)F)c3)cc2)ccn1 [sorafenib]
progression-free survival (accumulative hazard ratio) [1]: 2.46 | response to sorafenib treatment ([1]; subjects with C/T or T/T genotype compared with C/C genotype): stronger response | response to sorafenib compared with Hep3B cell line (C/C genotype) ([2]; 48 hours): stronger response | proliferation ([2]; sorafenib for 48 hours): dose-dependently inhibited | proliferation [3]: dose-dependently inhibited | response to sorafenib compared with Hep3B cell line (C/C genotype) ([4]; 48 hours): stronger response | proliferation ([4]; sorafenib for 48 hours): dose-dependently inhibited
